Data as given in patent publication US20260258050A1, “IMMUNOMODULATOR” (HITGEN INC., priority 2023, published 2026).

What was measured:
Human IL-17AF = biological target: T1, Human IL-17AF (Homo sapiens, UniProt Q16552+Q96PD4); test: IL-17AF ELISA (competitive ELISA, IL-17AF/IL-17Ra receptor-ligand binding); details: human IL-17AF coated plate, human IL-17Ra, read-out: IC50, inhibitory activity of compounds on human IL-17AF
T1 construct: purchased Sino Biological Inc. CT047-H08H
T1 sequence (Q16552 24-155): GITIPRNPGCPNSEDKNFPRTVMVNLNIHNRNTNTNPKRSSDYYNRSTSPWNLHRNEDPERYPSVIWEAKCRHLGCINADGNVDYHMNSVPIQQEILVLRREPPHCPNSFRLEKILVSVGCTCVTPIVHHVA
T1 sequence (Q96PD4 31-163): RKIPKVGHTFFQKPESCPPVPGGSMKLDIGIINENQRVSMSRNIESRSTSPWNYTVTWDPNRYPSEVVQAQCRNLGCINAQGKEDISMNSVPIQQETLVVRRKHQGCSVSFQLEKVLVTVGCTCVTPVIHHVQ
Outline: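 Inhibitors were first pre-incubated 10 min at 25 °C with plate-bound IL-17AF (coated at 0.625 μg/ml, PBS pH 7.4) before a 30-min exposure to IL-17Ra added from a 100 nM solution. Receptor capture read via anti-Fc HRP, TMB, A450. Residual activity normalized to blank/DMSO wells; IC50 by log(inhibitor)-normalized response, variable slope.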

Human IL-17A = biological target: T2, Human IL-17A (Homo sapiens, UniProt Q16552); test: Inhibition of human IL-17A protein-induced GROα/CXCL1 production in HT-29 cells; type: cell-based; parameters: purchased R&D 317-ILB; host or cells: added exogenously to HT-29 cells; details: 30 ng/mL human IL-17A protein, 48 h, GROα in supernatant by ELISA kit, read-out: Inhibitory IC50 of compounds on HT-29 cell GROα/CXCL1
T2 sequence (Q16552 20-155 limits assumed): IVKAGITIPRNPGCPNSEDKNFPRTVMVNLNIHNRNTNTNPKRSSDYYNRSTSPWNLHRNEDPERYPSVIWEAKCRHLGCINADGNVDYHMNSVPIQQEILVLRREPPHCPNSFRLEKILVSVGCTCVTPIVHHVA
Outline: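 Compound dilutions were preincubated 1 h at 37 °C with 30 ng/mL human IL-17A, then added to HT-29 cells (5×10^4/well) for 48 h at 37 °C. GROα in supernatant quantified by ELISA; IC50 for inhibition of its production. Positive control: IL-17A antibody at […].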

SMILES | IC50 (Human IL-17AF) [nM] | IC50 (Human IL-17A) [nM]
COCC(COC)n1nccc1C(=O)N[C@H](C(=O)Nc1cc2c(cc1F)-c1c(n[nH]c1C)CCOC2)C(C1CC1)C1CC1 [compound 99] | 100 to 500 | 100 to 500
Cc1[nH]nc2c1-c1cc(F)c(NC(=O)[C@@H](NC(=O)c3ccnn3C[C@@H]3C[C@H]3F)C(C3CC3)C3CC3)cc1COCC2 [compound 101] | ≤ 100 | ≤ 100
Cc1[nH]nc2c1-c1cc(F)c(NC(=O)[C@@H](NC(=O)/C(F)=C\C3CC3)C(C3CC3)C3CC3)cc1COCC2 [compound 230] | 100 to 500 | ≤ 100
Cc1[nH]nc2c1-c1cnc(NC(=O)[C@@H](NC(=O)c3ccnn3C(C)C)C(C3CC3)C3CC3)cc1CN(C1CC1)C(=O)C2 [compound 191] | ≤ 100 | ≤ 100
[2H]C([2H])(C1CC1)n1nccc1C(=O)N[C@H](C(=O)Nc1cc2c(cc1F)-c1c(n[nH]c1C)CCOC2)C(C1CC1)C1CC1 [compound 76] | ≤ 100 | 100 to 500
Cc1[nH]nc2c1-c1cc(F)c(NC(=O)[C@@H](NC(=O)c3ccnn3C(C)C)C(C3CC3)C3CC3)cc1CN(CC1CC1)CC2 [compound 166] | 100 to 500 | 100 to 500
CCn1nccc1C(=O)N[C@H](C(=O)Nc1ccc2c(c1)CNC(=O)Cc1n[nH]c(C)c1-2)C(C1CC1)C1CC1 [compound 28] | ≤ 100 | 100 to 500
Cc1[nH]nc2c1-c1cc(F)c(NC(=O)[C@@H](NC(=O)c3ccnn3CC3COC3)C(C3CC3)C3CC3)cc1COCC2 [compound 115] | 100 to 500 | 100 to 500
Cc1[nH]nc2c1-c1cnc(NC(=O)[C@@H](NC(=O)c3ccnn3C3CC3)C(C3CC3)C3CC3)cc1COCC2 [compound 237] | 100 to 500 | 100 to 500
Cc1[nH]nc2c1-c1cc(F)c(NC(=O)[C@@H](NC(=O)c3ccnn3CCOC(C)C)C(C3CC3)C3CC3)cc1COCC2 [compound 98] | 100 to 500 | 100 to 500
CSCCn1nccc1C(=O)N[C@H](C(=O)Nc1cc2c(cc1F)-c1c(n[nH]c1C)CCOC2)C(C1CC1)C1CC1 [compound 61] | ≤ 100 | 100 to 500
Cc1[nH]nc2c1-c1cc(F)c(NC(=O)[C@@H](NC(=O)c3cnnn3CCOC(F)F)C(C3CC3)C3CC3)cc1COCC2 [compound 108] | 100 to 500 | 100 to 500
Cc1[nH]nc2c1-c1cnc(NC(=O)[C@@H](NC(=O)c3ccnn3CC(F)(F)F)C(C3CC3)C3CC3)cc1COCC2 [compound 236] | 100 to 500 | 100 to 500
Cc1[nH]nc2c1-c1cc(F)c(NC(=O)[C@@H](NC(=O)c3ccnn3C)C(C3CC3)C3CC3)cc1COCC2 [compound 17] | 100 to 500 | 100 to 500
Cc1[nH]nc2c1-c1cc(F)c(NC(=O)[C@@H](NC(=O)c3ccnn3CC3CCC3)C(C3CC3)C3CC3)cc1COCC2 [compound 60] | ≤ 100 | 100 to 500
